Laboratory results reported in US20120121723A1, “Antimicrobial Compositions” (priority 2005, published 2012).
Read-outs that look alike come from different tables or passages of the source.

Key:
E. coli = experiment: microbe, parasite or virus in culture; type: cell-based, Escherichia coli; settings: for MIC: Escherichia coli
Excerpt: (§1) MIC testing and synergistic effects studies. The microorganisms were clinically obtained isolates. Staphylococcus aureus is a clinically significant member of the gram-positive group of bacterial pathogens. It gives rise to serious infections, and can produce bacteremia, endocarditis, and meningitis. Methicillin-resistant strains of Staphylococcus aureus (MRSA) were chosen for evaluation because they are a significant medical problem, particularly in view of the fact that methicillin is a drug of choice for treatment of S. aureus infection in the common penicillin-resistant strains. Escherichia coli was also chosen for evaluation. E. coli is a gram-negative pathogenic enterobacteriaceae, and is commonly used as a model organism for bacteria in general. The E. coli strain O157:H7, one of hundreds of strains of the bacterium E. coli, causes illness in humans.
(§2) All individual components are present in the combination at a starting point of 10,000 μg/mL, or 1% unless otherwise noted in the parenthesis in the attached tables. Combinations are serially diluted to obtain the MIC. […]
(§3) Abbreviations in Tables 2 and 3 are as follows. MIC is the Minimum Inhibitory Concentration. MRSA is Methicillin-resistant Staphylococcus Aureus. E. coli is Escherichia coli. […] Pluronic® F127 is Pluronic® F127 microemulsion.
(§4) The Minimum Inhibitory Concentrations (MIC) were determined using tube dilution sensitivities. […] The cultures were incubated overnight at 37° C. and MICs were recorded. The MIC was determined as the lowest concentration of a combination which prevented visible microorganism growth (e.g., turbidity). A culture growth control without compound and several culture sensitive reference agents were used as positive controls. The assays were performed in triplicate.
(§5) Dilutions of the compositions were added to bacterial growth media (tryptic soy broth) to result in a set of tubes with a concentration range of 0.001 mg/L-1000 mg/L of the combination.
(§6) QB is the ppm (MIC) of active substance B alone which produces an endpoint. QC is the ppm (MIC) of active substance C alone which produces an endpoint. Qa is the ppm (MIC) of active substance A, in the combination, which produces an endpoint. Qb is the ppm (MIC) of active substance B, in the combination, which produces an endpoint. Qc is the ppm (MIC) of active substance C, in the combination, which produces an endpoint. And so on for Qn components.
(§7) If the SI of Qa/QA+Qb/QB+Qc/QC is less than one, synergy is indicated. A value greater than one indicates antagonism. A value equal to one indicates additivity.

MRSA = experiment: MIC by tube dilution and Kull synergy index against MRSA; type: cell-based, Staphylococcus aureus; settings: for MIC: Staphylococcus aureus
Excerpt: as §1, §2, §3, §4, §5, §6, §7

resistant E. coli = experiment: Additional synergy testing: combination plus 0.5X MIC of an antibiotic; type: cell-based, Escherichia coli
[1] = Table 3, MIC of Component 1 alone against E. coli, read-out: 1-MIC-
[2] = Table 3, MIC of Component 2 alone against E. coli, read-out: 2-MIC-
[3] = Table 2, MIC of Component 3 alone against MRSA
[4] = Table 2, MIC of Component 1 alone against MRSA, read-out: 1-MIC-
[5] = Table 2, MIC of Component 2 alone against MRSA, read-out: 2-MIC-
[6] = Table 2, MIC of Component 2 alone against MRSA

O=C(/C=C/C=C/c1ccc2c(c1)OCO2)N1CCCCC1 [Piperine, piperine] showed an MIC (E. coli; [1]) of 1000 µg/mL, an MIC (E. coli; [2]) of 1000 µg/mL and an MIC (MRSA; MRSA, read-out: 1-MIC-) of 1000 µg/mL. The MIC (MRSA; MRSA, read-out: 2-MIC-) was 1000 µg/mL and the MIC (MRSA; MRSA, read-out: 2-MIC-MRSA) was 1000 µg/mL.

In the case of 2-hydroxypropyl-α-cyclodextrin, the 3-MIC- (MRSA; [3]) is reported as 1001 ppm and the 3-MIC-MRSA (MRSA; Table 5, Component 3 alone) is reported as 1001 ppm.

Compound Oc1cccc2cccnc12 [8-hydroxyquinoline] has an MIC (E. coli; read-out: 3-MIC-) of 50 µg/mL, an MIC (MRSA; MRSA, read-out: 3-MIC-) of 1.56 µg/mL and an MIC (MRSA; MRSA, read-out: 3-MIC-MRSA) of 1.56 µg/mL.

Compound CC(O)(P(=O)(O)O)P(=O)(O)O [HEDP, 1-hydroxyethylidene-1,1-diphosphonic acid] has a 3-MIC- (E. coli; Table 3, MIC of Component 3 alone against E. coli) of 1001 ppm, a 3-MIC- (MRSA; [3]) of 1001 ppm and a 3-MIC-MRSA (MRSA; Table 5, Component 3 alone) of 1001 ppm.

C=CCN=C=S [Allyl isothiocyanate, allyl isothiocyanate] was tested, and the MIC (E. coli; [1]) was 1000 µg/mL, the MIC (E. coli; [2]) was 1000 µg/mL and the MIC (MRSA; MRSA, read-out: 1-MIC-) was 1000 µg/mL. The MIC (MRSA; MRSA, read-out: 2-MIC-) was 1000 µg/mL and the MIC (MRSA; MRSA, read-out: 2-MIC-MRSA) was 1000 µg/mL.

In the case of CCCCCCCCCCCCN(CCCN)CCCN [N,N-bis(3-aminopropyl)-dodecylamine, N,N-bis-(3-aminopropyl)dodecylamine], the MIC (E. coli; [1]) is reported as 25 µg/mL, the MIC (E. coli; [2]) is reported as 25 µg/mL and the MIC (MRSA; [4]) is reported as 12.5 µg/mL. The MIC (MRSA; [5]) was 12.5 µg/mL.

With OCC1CCCO1 (stereo not shown) [THFA, tetrahydrofurfuryl alcohol] the MIC (MRSA; MRSA, read-out: Other-MIC-) was 500 µg/mL.

Work on CN(C)c1ccc2nc3ccc(=[N+](C)C)cc-3sc2c1 [Methylene blue, methylene blue] yielded an MIC (E. coli; [1]) of 1000 µg/mL, an MIC (E. coli; [2]) of 1000 µg/mL and an MIC (MRSA; [5]) of 25 µg/mL.

In the case of CN(C)[C@@H]1C(=O)C(C(N)=O)=C(O)[C@@]2(O)C(=O)C3=C(O)c4c(O)cccc4[C@@](C)(O)[C@H]3C[C@@H]12 [tetra, tetracycline], the “MIC Ab alone (B) QB” value (resistant E. coli) is reported as 400 µg/mL.

In the case of O=C(O)CN(CCN(CC(=O)O)CC(=O)O)CC(=O)O.[K] [Sample K2EDTA, potassium ethylenediaminetetraacetic acid], the MIC (E. coli; read-out: 3-MIC-) is reported as 1000 µg/mL, the MIC (MRSA; MRSA, read-out: 3-MIC-) is reported as 500 µg/mL and the MIC (MRSA; MRSA, read-out: 3-MIC-MRSA) is reported as 500 µg/mL.

For C[C@H]1c2cccc(O)c2C(O)=C2C(=O)[C@]3(O)C(O)=C(C(N)=O)C(=O)[C@@H](N(C)C)[C@@H]3[C@@H](O)[C@@H]21 [doxy, doxycycline], the “MIC Ab alone (B) QB” value (resistant E. coli) was 50 µg/mL.

Work on O=C(O)c1ccccc1O [Salicylic acid, salicylic acid] yielded an MIC (E. coli; Table 3, MIC of Component 3 alone against E. coli, read-out: 3-MIC-) of 1000 µg/mL, an MIC (MRSA; MRSA, Table 5, Component 3 alone, read-out: 3-MIC-MRSA) of 1000 µg/mL and an MIC (MRSA; Table 2, MIC of Component 3 alone against MRSA, read-out: 3-MIC-) of 1000 µg/mL.

CC(=O)c1c(O)c(C)c(O)c2c1OC1=CC(=O)C(C(C)=O)C(=O)C12C (stereo not shown) [Usnic Acid, usnic acid] gave an MIC (E. coli; [1]) of 1000 µg/mL, an MIC (E. coli; [2]) of 1000 µg/mL and an MIC (MRSA; MRSA, read-out: 1-MIC-) of 6.25 µg/mL. The MIC (MRSA; MRSA, read-out: 2-MIC-) was 6.25 µg/mL and the MIC (MRSA; MRSA, read-out: 2-MIC-MRSA) was 6.25 µg/mL.

C=CC(C)(O)CCC=C(C)CCC=C(C)C (stereo not shown) [Nerolidol, nerolidol] gave an MIC (E. coli; [1]) of 1000 µg/mL, an MIC (MRSA; MRSA, Table 5, Comp. 1 alone, read-out: 1-MIC-MRSA) of 500 µg/mL and an MIC (MRSA; [4]) of 500 µg/mL.

CCCCCCCCO[C@@H]1O[C@H](CO)[C@@H](O)[C@H](O)[C@H]1O [Octyl glucoside, octyl glucoside] gave a 2-MIC- (MRSA; [6]) of 1001 ppm.

[O-][n+]1ccccc1S [Pyrithione, pyrithione] gave an MIC (E. coli; read-out: 2-MIC-) of 6.25 µg/mL, an MIC (MRSA; MRSA, read-out: 2-MIC-) of 0.79 µg/mL and an MIC (MRSA; MRSA, read-out: 2-MIC-MRSA) of 0.79 µg/mL.

Work on C=C(C)[C@H]1CC=C(C)CC1 [Limonene, limonene] yielded a 1-MIC- (E. coli; Table 3, MIC of Component 1 alone against E. coli) of 1000 ppm, a 2-MIC- (E. coli; Table 3, MIC of Component 2 alone against E. coli) of 1001 ppm and a 1-MIC- (MRSA; Table 2, MIC of Component 1 alone against MRSA) of 1001 ppm. It also gave a 2-MIC- (MRSA; [6]) of 1001 ppm and a 1-MIC-MRSA (MRSA; Table 5, Comp. 1 alone) of 1001 ppm.

In the case of gentamicin, the “MIC Ab alone (B) QB” value (resistant E. coli) is reported as 100 µg/mL.
